Test results: ChEMBL document CHEMBL4842340, “Development of Cagrilintide, a Long-Acting Amylin Analogue” (J Med Chem, 2021)
pEC50: −log10 of the molar value. Converted amounts (≈) assume the structure as drawn. *1 amine or outer side, *2 acyl side, *3 side chain or, on linkers, in order; H or OH if unused. Where a SMILES comes first, the peptide text is derived from it. Bridges are numbered along the chain shown (N, C = ends). The star is where a group is joined. C20 diacid = O=C(O)CCCCCCCCCCCCCCCCCCC(=O)*; γGlu = O=C(O)[C@H](CCC(=O)[*:2])N[*:1]

Experiments:
[1] = Solubility of the compound in lactate at pH 4 by UPLC analysis; format: physicochemical; conditions: lactate buffer
[2] = Agonist activity at human AMY3R (CT+RAMP3) expressed in Hollex1 cells incubated for 3 hrs by luminescence assay; format: cell-based; conditions: Hollex1, 3 h
[3] = Solubility of the compound in lactate at pH 3 by UPLC analysis; format: physicochemical; conditions: lactate buffer
[4] = Solubility of the compound in bis-tris propane at pH 6.5 by UPLC analysis; format: physicochemical; conditions: bis-tris propane buffer
Rattus norvegicus [5] = test: Reduction in food intake in Sprague-Dawley rat at 3 nmol/kg, sc administered as single dose measured after 24 to 48 hrs relative to control; format: functional; parameters: scale not given: the % may be the effect or the level left; conditions: time 24-48 hrs
Insulin (Homo sapiens) [6] = target: Insulin (Homo sapiens) (UniProt P01308); test: Effect on insulin (unknown origin) amyloid fibril formation assessed as peptide recovery in glycyl-glycine buffer at pH 4 measured after 45 hrs by thioflavin-T fluorescence assay relative to control; parameters: concentration or dose not given beside the values
Sequence of Insulin (Homo sapiens) (P01308 whole entry): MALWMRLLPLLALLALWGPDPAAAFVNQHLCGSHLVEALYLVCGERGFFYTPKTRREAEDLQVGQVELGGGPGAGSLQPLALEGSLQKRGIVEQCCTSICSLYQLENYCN

[7] = Agonist activity at human calcitonin receptor expressed in BHK570 cells assessed as increase in intracellular cAMP concentration incubated for 3 hrs in absence of albumin by CRE luciferase reporter gene assay; format: cell-based; conditions: BHK570, 3 h
Insulin (Homo sapiens) [8] = target: Insulin (Homo sapiens) (UniProt P01308); test: Effect on insulin (unknown origin) amyloid fibril formation assessed as lag time in glycyl-glycine buffer at pH 4 measured after 45 hrs by thioflavin-T fluorescence assay
[9] = Solubility of the compound in bis-tris propane at pH 8 by UPLC analysis; format: physicochemical; conditions: bis-tris propane buffer
[10] = Solubility of the compound in bis-tris propane at pH 6 by UPLC analysis; format: physicochemical; conditions: bis-tris propane buffer
Rattus norvegicus [11] = test: Reduction in food intake in Sprague-Dawley rat at 3 nmol/kg, sc administered as single dose measured upto 24 hrs relative to control; format: functional; parameters: scale not given: the % may be the effect or the level left; conditions: time hrs <=24
[12] = Solubility of the compound in bis-tris propane at pH 7 by UPLC analysis; format: physicochemical; conditions: bis-tris propane buffer
[13] = Solubility of the compound in bis-tris propane at pH 7.5 by UPLC analysis; format: physicochemical; conditions: bis-tris propane buffer
Homo sapiens = species on record: Homo sapiens; test: Ratio of EC50 for human calcitonin receptor expressed in BHK570 cells to EC50 for human AMY3R (CT+RAMP3) expressed in Hollex1 cells; format: cell-based
Rattus norvegicus [14] = species on record: Rattus norvegicus; test: Ratio of EC50 for rat calcitonin receptor expressed in BHK-13 cells to EC50 for rat AMY3R (CT+RAMP3) expressed in tk-ts13 cells; format: cell-based
[15] = Agonist activity at rat AMY3R (CT+RAMP3) expressed in tk-ts13 cells assessed as increase in intracellular cAMP level incuabted for 25 mins by CRE luciferase reporter gene assay; format: cell-based; conditions: tk-ts13, 25 min
[16] = Solubility of the compound in lactate at pH 5 by UPLC analysis; format: physicochemical; conditions: lactate buffer
[17] = Agonist activity at rat calcitonin receptor expressed in BHK-13 cells assessed as increase in intracellular cAMP concentration incubated for 25 mins by CRE luciferase reporter gene assay; format: cell-based; conditions: BHK-13, 25 min

Row | SMILES | solubility [1] | pEC50 [2] | solubility [3] | solubility [4] | Activity (Rattus norvegicus [5]) | Activity (Insulin (Homo sapiens) [6]) | pEC50 [7] | TIME (Insulin (Homo sapiens) [8]) | solubility [9] | solubility [10] | Activity (Rattus norvegicus [11]) | solubility [12] | solubility [13] | Ratio EC50 (Homo sapiens) | Ratio EC50 (Rattus norvegicus [14]) | pEC50 [15] | solubility [16] | pEC50 [17]
1 | CC[C@H](C)[C@H](NC(=O)[C@@H]1CCCN1C(=O)CNC(=O)[C@H](Cc1ccccc1)NC(=O)[C@H](CC(N)=O)NC(=O)[C@H](CC(N)=O)NC(=O)[C@H](CO)NC(=O)[C@H](CO)NC(=O)[C@H](Cc1cnc[nH]1)NC(=O)[C@H](Cc1cnc[nH]1)NC(=O)[C@H](CC(C)C)NC(=O)[C@H](Cc1ccccc1)NC(=O)[C@H](CCC(=O)O)NC(=O)[C@H](C)NC(=O)[C@H](CC(C)C)NC(=O)[C@H](CCCNC(=N)N)NC(=O)[C@H](CCC(N)=O)NC(=O)[C@@H](NC(=O)[C@H](C)NC(=O)[C@@H]1CSSC[C@H](NC(=O)[C@H](CCC(=O)O)NC(=O)CC[C@H](NC(=O)CCCCCCCCCCCCCCCCCCC(=O)O)C(=O)O)C(=O)N[C@@H](CC(N)=O)C(=O)N[C@@H]([C@@H](C)O)C(=O)N[C@@H](C)C(=O)N[C@@H]([C@@H](C)O)C(=O)N1)[C@@H](C)O)C(=O)N[C@@H](CC(C)C)C(=O)N1CCC[C@H]1C(=O)N1CCC[C@H]1C(=O)N[C@H](C(=O)N[C@@H](CC(N)=O)C(=O)N[C@H](C(=O)NCC(=O)N[C@@H](CO)C(=O)N[C@@H](CC(N)=O)C(=O)N[C@H](C(=O)N[C@@H](Cc1ccc(O)cc1)C(N)=O)[C@@H](C)O)C(C)C)[C@@H](C)O ({C20 diacid-γGlu}-ECNTATCATQRLAEFLHHSSNNFGPILPPTNVGSNTY-NH2; disulfide 2-7) | 200 µM (≈ 891 µg/mL) | 9.42 | 200 µM (≈ 891 µg/mL) | 200 µM (≈ 891 µg/mL) | 5% | 0% | 9.18 | 3 h | 200 µM (≈ 891 µg/mL) | 200 µM (≈ 891 µg/mL) | 15% | 200 µM (≈ 891 µg/mL) | 200 µM (≈ 891 µg/mL) | 2 | – | – | – | –
2 | CC(C)C[C@H](NC(=O)[C@H](CCCNC(=N)N)NC(=O)[C@H](CCC(N)=O)NC(=O)[C@@H](NC(=O)[C@H](C)NC(=O)[C@@H]1CSSC[C@H](NC(=O)[C@H](Cc2cnc[nH]2)NC(=O)CC[C@H](NC(=O)CCCCCCCCCCCCCCCCCCC(=O)O)C(=O)O)C(=O)N[C@@H](CC(N)=O)C(=O)N[C@@H]([C@@H](C)O)C(=O)N[C@@H](C)C(=O)N[C@@H]([C@@H](C)O)C(=O)N1)[C@@H](C)O)C(=O)N[C@@H](C)C(=O)N[C@@H](CCC(=O)O)C(=O)N[C@@H](Cc1ccccc1)C(=O)N[C@@H](CC(C)C)C(=O)N[C@@H](Cc1cnc[nH]1)C(=O)N[C@@H](CCCNC(=N)N)C(=O)N[C@@H](CO)C(=O)N[C@@H](CO)C(=O)N[C@@H](CC(N)=O)C(=O)N[C@@H](CC(N)=O)C(=O)N[C@@H](Cc1ccccc1)C(=O)NCC(=O)N[C@@H](C)C(=O)N1CCC[C@H]1C(=O)N[C@@H](CC(C)C)C(=O)N[C@@H](CO)C(=O)N[C@@H](CO)C(=O)N[C@H](C(=O)N[C@@H](CC(N)=O)C(=O)N[C@H](C(=O)NCC(=O)N[C@@H](CO)C(=O)N[C@@H](CC(N)=O)C(=O)N[C@H](C(=O)N[C@@H](Cc1ccc(O)cc1)C(N)=O)[C@@H](C)O)C(C)C)[C@@H](C)O ({C20 diacid-γGlu}-HCNTATCATQRLAEFLHRSSNNFGAPLSSTNVGSNTY-NH2; disulfide 2-7) | – | 9.97 | 200 µM (≈ 884 µg/mL) | 4 µM (≈ 17.7 µg/mL) | – | 0% | 9.66 | 14 h | – | – | – | 7 µM (≈ 31 µg/mL) | – | 2 | – | – | – | –
3 | CC[C@H](C)[C@H](NC(=O)[C@@H]1CCCN1C(=O)CNC(=O)[C@H](Cc1ccccc1)NC(=O)[C@H](CC(N)=O)NC(=O)[C@H](CC(N)=O)NC(=O)[C@H](CO)NC(=O)[C@H](CO)NC(=O)[C@H](Cc1c[nH]cn1)NC(=O)[C@H](CCCNC(=N)N)NC(=O)[C@H](CC(C)C)NC(=O)[C@H](Cc1ccccc1)NC(=O)[C@H](CCC(=O)O)NC(=O)[C@H](C)NC(=O)[C@H](CC(C)C)NC(=O)[C@H](CCCNC(=N)N)NC(=O)[C@H](CCC(N)=O)NC(=O)[C@@H](NC(=O)[C@H](C)NC(=O)[C@@H]1CSSC[C@H](NC(=O)[C@H](CCCCN)NC(=O)CC[C@H](NC(=O)CCCCCCCCCCCCCCCCCCC(=O)O)C(=O)O)C(=O)N[C@@H](CC(N)=O)C(=O)N[C@@H]([C@@H](C)O)C(=O)N[C@@H](C)C(=O)N[C@@H]([C@@H](C)O)C(=O)N1)[C@@H](C)O)C(=O)N[C@@H](CC(C)C)C(=O)N1CCC[C@H]1C(=O)N1CCC[C@H]1C(=O)N[C@H](C(=O)N[C@@H](CC(N)=O)C(=O)N[C@H](C(=O)NCC(=O)N[C@@H](CO)C(=O)N[C@@H](Cc1cnc[nH]1)C(=O)N[C@H](C(=O)N[C@@H](Cc1ccc(O)cc1)C(N)=O)[C@@H](C)O)C(C)C)[C@@H](C)O ({C20 diacid-γGlu}-KCNTATCATQRLAEFLRHSSNNFGPILPPTNVGSHTY-NH2; disulfide 2-7) | 200 µM (≈ 900 µg/mL) | 9.95 | 200 µM (≈ 900 µg/mL) | 200 µM (≈ 900 µg/mL) | 0% | 100% | 9.42 | 45 h | 80 µM (≈ 360 µg/mL) | 200 µM (≈ 900 µg/mL) | 17% | 200 µM (≈ 900 µg/mL) | – | 3 | 5 | 9.31 | 200 µM (≈ 900 µg/mL) | 8.60
